From paper PMC2953793 (Cancer chemotherapy and pharmacology, 2009)
“And” between values parts separate entries of the source, which are not always exact repeats. Equal entries are not always repeated. Where two headings read alike, the source gives them in different places.

Columns and labels:
PARP [1] = conditions: phase 0 study, National Cancer Institute; single oral dose of 25 or 50 mg; cited from earlier work
PARP [2] = conditions: cited from earlier work
[3] = CD-1 mice; cited from earlier work
[4] = tested on: human colon cancer and lung cancer xenograft models; conditions: human colon cancer (ref 12) and lung cancer xenograft models (ref 1); cited from earlier work
PARP [5] = tested on: PARP
[6] = individual animals, single 5 mg/kg dose, 5 mg/kg
[7] = individual animals, single 5 mg/kg dose, model parameter, 5 mg/kg
[8] = mean of three animals, single 5 mg/kg dose, model parameter

V1/F model-estimated apparent volume of distribution [6]: 40.0 L/kg and 24.2 L/kg | t1/2P model-estimated plasma half-life [6]: 3.9 h and 4.3 h | K21 rate constant for transfer from CSF to plasma [7]: 0.805 h⁻¹ and 0.420 h⁻¹ and 0.913 h⁻¹ | Ka absorption rate constant [7]: 12.5 h⁻¹ and 53.5 h⁻¹ and 44.2 h⁻¹ | Ke plasma elimination rate constant [7]: 0.18 h⁻¹ and 0.16 h⁻¹ | τ time-delay for absorption of oral drug [7]: 0.76 h and 0.78 h and 2.75 h | Vd/F (male, rhesus monkey, plasma, po, 5 mg/kg, V1/F model-estimated apparent volume of distribution, individual animals, single 5 mg/kg dose): 41.5 L/kg | K12 rate constant for transfer from plasma to CSF [8]: 9.4e-06 h⁻¹ | K21 rate constant for transfer from CSF to plasma [8]: 0.71 h⁻¹ | Ka absorption rate constant [8]: 36.7 h⁻¹ | τ time-delay for absorption of oral drug [8]: 1.43 h | time delay for absorption (range across animals, oral 5 mg/kg): 46 to 165 min
SMILES: C[C@]1(c2nc3c(C(N)=O)cccc3[nH]2)CCCN1 [ABT-888]
PARP inhibition in PBMCs and biopsied tumors (PARP [1]): > 90% | concentrations required for ex vivo PARP inhibition in PBMCs (PARP [2]): 0.1 to 0.3 µM | accumulation in intracranial tumors versus normal brain [3]: preferentially accumulate in intracranial tumors versus normal brain | K12 rate constant for transfer from plasma to CSF [7]: 7e-06 h⁻¹ and 4.7e-06 h⁻¹ and 1.65e-05 h⁻¹ | potentiation of radiation [4]: potentiates radiation | % PARP inhibition (PARP [5]; individual animals, PBMCs, 2 h post versus pre-treatment, single oral 5 mg/kg): 52% and 71% and 78% | reduction of PARP activity in PBMCs compared with pre-treatment levels (PARP [5]; mean ± SD of three animals, 2 h after a single dose): 67 ± 13% | PARP inhibition in NHP PBMCs (PARP [5]; range across animals, 2 h after single oral dose 5 mg/kg): 52–78%
